Data as given in US20100292320A1, “BENZOFURAN ANILIDE HISTONE DEACETYLASE INHIBITORS” (Gilead Colorado, Inc., priority 2007, published 2010).

Experiments:
[1] = molecular target: T1, HDAC 6 (Homo sapiens, UniProt Q9UBN7); test: HDAC 6 inhibition assay, fluorophore/quencher peptide substrate, 3-hour preincubation; type: biochemical; settings: about 3 hours preincubation of enzyme/compound mix at room temperature; read-out: HDAC 6 inhibitory activity (IC50 [μM]) 3-hour preincubation
T1 sequence (Q9UBN7 1-1215): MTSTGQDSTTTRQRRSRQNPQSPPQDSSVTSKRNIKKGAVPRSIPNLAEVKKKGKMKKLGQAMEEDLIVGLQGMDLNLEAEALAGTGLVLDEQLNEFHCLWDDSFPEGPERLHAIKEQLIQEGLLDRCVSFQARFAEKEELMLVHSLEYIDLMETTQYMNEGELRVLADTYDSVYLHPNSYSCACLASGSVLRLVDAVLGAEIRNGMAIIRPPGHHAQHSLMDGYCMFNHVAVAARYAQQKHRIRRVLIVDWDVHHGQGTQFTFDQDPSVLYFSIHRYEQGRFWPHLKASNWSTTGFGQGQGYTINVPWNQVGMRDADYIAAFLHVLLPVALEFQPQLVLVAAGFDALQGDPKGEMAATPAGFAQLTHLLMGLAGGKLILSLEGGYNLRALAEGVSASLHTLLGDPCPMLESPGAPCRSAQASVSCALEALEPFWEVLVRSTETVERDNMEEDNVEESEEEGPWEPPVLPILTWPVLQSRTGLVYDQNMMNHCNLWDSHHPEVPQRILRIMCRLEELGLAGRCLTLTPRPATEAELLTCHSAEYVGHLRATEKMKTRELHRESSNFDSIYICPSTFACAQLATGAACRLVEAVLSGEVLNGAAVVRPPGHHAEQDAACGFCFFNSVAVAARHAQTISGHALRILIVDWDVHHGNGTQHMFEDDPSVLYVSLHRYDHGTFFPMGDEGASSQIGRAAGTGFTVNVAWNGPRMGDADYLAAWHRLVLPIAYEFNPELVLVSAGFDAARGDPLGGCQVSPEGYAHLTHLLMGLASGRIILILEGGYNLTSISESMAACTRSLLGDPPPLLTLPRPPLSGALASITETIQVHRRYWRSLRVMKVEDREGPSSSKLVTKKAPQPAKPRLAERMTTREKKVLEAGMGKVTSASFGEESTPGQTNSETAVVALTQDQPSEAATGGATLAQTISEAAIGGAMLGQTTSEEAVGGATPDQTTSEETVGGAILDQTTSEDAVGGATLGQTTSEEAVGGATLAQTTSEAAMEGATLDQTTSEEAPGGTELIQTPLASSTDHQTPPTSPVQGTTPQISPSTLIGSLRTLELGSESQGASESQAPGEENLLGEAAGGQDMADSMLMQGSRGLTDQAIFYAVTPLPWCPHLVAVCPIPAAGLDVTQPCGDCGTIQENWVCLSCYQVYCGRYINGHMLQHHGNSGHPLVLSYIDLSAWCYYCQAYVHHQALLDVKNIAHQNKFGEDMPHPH
Description: (§1) The second assay is similar to the first assay described above, except that preincubation is carried out for about 3 hours after the enzyme is introduced. The test compound was suspended in, and titrated in DMSO. It was then spotted into a 384-well test plate. The enzyme, HDAC 1 or 6, was diluted in the same assay buffer as used in the previous assay and added to the pre-spotted compound. The enzyme/compound mix was incubated at room temperature for about 3 hours. The peptide substrate containing a fluorophore/quencher pair was diluted in the assay buffer and added to the compound/enzyme mix initiating the reaction. The reaction incubated at room temperature for 45 minutes. A concentrated developer solution was diluted in the assay buffer, and added to the reaction. The reaction was incubated at room temperature for about 15 minutes and relative fluorescence was read on an instrument reader.

[2] = molecular target: T1, HDAC 6; test: HDAC 6 inhibition assay, fluorophore/quencher peptide substrate, no preincubation; type: biochemical; settings: no preincubation of enzyme and compound; read-out: HDAC 6 inhibitory activity (IC50 [μM]) No preincubation
Description: (§2) HDAC inhibitory activity of the compound of Example 1 was measured by two types of assays in which HDAC 1 and 6 were used as a target molecule. The first assay was carried out without preincubation after addition of the enzyme. The test compound was suspended in and titrated in DMSO. It was then spotted into a 384-well test plate. The enzyme, HDAC 1 or 6, was diluted in assay buffer containing 25 mM Tris-HCl (pH 8.0), 137 mM NaCl, 2.7 mM KCl, and 0.01% Tween-20 and added to the pre-spotted compound. The peptide substrate containing a fluorophore/quencher pair was diluted in the same assay buffer and added to the compound/enzyme mix initiating the reaction. The reaction incubated at room temperature for about 45 minutes. A concentrated developer solution was diluted in the assay buffer, and added to the reaction. The reaction was incubated at room temperature for about 15 minutes and relative fluorescence was read on an instrument reader.

[3] = molecular target: T2, HDAC 1 (Homo sapiens, UniProt Q13547); test: HDAC 1 inhibition assay, fluorophore/quencher peptide substrate, 3-hour preincubation; type: biochemical; settings: about 3 hours preincubation of enzyme/compound mix at room temperature; read-out: HDAC 1 inhibitory activity (IC50 [μM]) 3-hour preincubation
Description: as §1

[4] = molecular target: T2, HDAC 1; test: HDAC 1 inhibition assay, fluorophore/quencher peptide substrate, no preincubation; type: biochemical; settings: no preincubation of enzyme and compound; read-out: HDAC 1 inhibitory activity (IC50 [μM]) No preincubation
Description: as §2

T2 sequence (Q13547 whole entry, species assumed): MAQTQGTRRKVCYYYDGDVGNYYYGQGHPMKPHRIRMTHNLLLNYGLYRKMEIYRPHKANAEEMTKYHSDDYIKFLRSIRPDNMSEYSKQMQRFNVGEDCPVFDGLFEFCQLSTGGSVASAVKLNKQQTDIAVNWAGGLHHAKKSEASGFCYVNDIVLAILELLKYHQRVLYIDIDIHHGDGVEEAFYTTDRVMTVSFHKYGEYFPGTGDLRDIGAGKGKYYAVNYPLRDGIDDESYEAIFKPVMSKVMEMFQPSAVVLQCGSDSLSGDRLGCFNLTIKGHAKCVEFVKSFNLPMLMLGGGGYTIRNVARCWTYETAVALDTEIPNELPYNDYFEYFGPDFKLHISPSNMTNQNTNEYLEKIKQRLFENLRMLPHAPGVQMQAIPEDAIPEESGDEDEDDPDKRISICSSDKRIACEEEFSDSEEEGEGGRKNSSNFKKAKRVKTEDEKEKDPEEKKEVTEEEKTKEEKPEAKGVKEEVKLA

For `CN(C)Cc1c(C(=O)NCCOc2ccc(C(=O)Nc3ccccc3N)cc2)oc2ccccc12` [Example 1, N-(2-aminophenyl)-4-[2-(3-dimethylaminomethylbenzofuran-2-ylcarbonylamino)-ethoxy]-benzamide], which IC50 [1] is on record?
Its IC50 is > 50 µM.

What about the melting point of the same compound?
Its melting point is 205.1 °C.

And the IC50 [2]?
Its IC50 is > 50 µM.

And the IC50 [3]?
Its IC50 is 0.0033 µM.

And the IC50 [4]?
Its IC50 is 0.03 µM.
